Experimental findings from ChEMBL document CHEMBL1156543, “Identification of N-(4-piperidinyl)-4-(2,6-dichlorobenzoylamino)-1H-pyrazole-3-carboxamide (AT7519), a novel cyclin dependent kinase inhibitor using fragment-based X-ray crystallography and structure based drug design” (J Med Chem, 2008) are described below.

For data set [1], the target named is Cyclin-dependent kinase 2 (Homo sapiens, UniProt P24941).
Description: Inhibition of CDK2/Cyclin A by radiometric assay
A further data set can be described thus: in vivo. Conditions: BALB/c, mouse, plasma, iv, 0.2 mg/kg.
Data set [2] addresses Cyclin-dependent kinase 1/cyclin B1 (Homo sapiens, UniProt P06493).
Description: Inhibition of CDK1/Cyclin B by radiometric assay
For data set [3], the system named is HCT-116. Put plainly: Antitumor activity against human HCT116 cells xenografted into SCID mouse at 18.2 mg/kg, ip bid for 10 days. Format: functional. Conditions: HCT-116, ip, 240 h, route intraperitoneal.
Data set [4] concerns HCT-116. Put plainly: Antitumor activity against human HCT116 cells xenografted into SCID mouse at 9.1 mg/kg, ip bid for 10 days. It is filed as functional. Conditions: HCT-116, ip, 240 h, route intraperitoneal. On the technique in general: In xenograft studies the graft and the host belong to different species.
For data set [5], the system named is HCT-116. Put plainly: Antitumor activity against human HCT116 cells xenografted into SCID mouse at […], ip bid for 10 days. Format: functional. Conditions: HCT-116, ip, 240 h, dose 4.6 mg/kg, route intraperitoneal.
For the next data set, the species on record is Mus musculus. Conditions: in vivo, ip, 10 mg/kg.
Data set [6] relates to HCT-116. Conditions: dose 9.1 mg/kg; route intraperitoneal.
Description: Antitumor activity against human HCT116 cells xenografted into SCID mouse at 9.1 mg/kg, ip bid administered QDx10 schedule relative to control
The nature of the next data set: in vitro. Conditions: mouse, plasma.
For data set [7], the system named is HCT-116. Put plainly: Antitumor activity against human HCT116 cells xenografted into BALB/c mouse at 10 mg/kg, ip bid administered QDx9 schedule relative to control. Format: functional. Conditions: route intraperitoneal.

Structures are written as SMILES.

Sequence of Cyclin-dependent kinase 1/cyclin B1 (P06493 whole entry): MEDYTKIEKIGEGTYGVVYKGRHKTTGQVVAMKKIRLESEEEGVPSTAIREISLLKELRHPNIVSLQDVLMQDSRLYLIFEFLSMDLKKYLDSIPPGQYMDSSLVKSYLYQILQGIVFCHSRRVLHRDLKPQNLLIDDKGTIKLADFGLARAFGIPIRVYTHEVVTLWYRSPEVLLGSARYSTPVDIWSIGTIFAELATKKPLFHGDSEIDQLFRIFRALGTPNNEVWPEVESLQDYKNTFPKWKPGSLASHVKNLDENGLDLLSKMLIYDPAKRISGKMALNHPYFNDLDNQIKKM
Sequence of Cyclin-dependent kinase 1/cyclin B1 (P14635 whole entry, further chain): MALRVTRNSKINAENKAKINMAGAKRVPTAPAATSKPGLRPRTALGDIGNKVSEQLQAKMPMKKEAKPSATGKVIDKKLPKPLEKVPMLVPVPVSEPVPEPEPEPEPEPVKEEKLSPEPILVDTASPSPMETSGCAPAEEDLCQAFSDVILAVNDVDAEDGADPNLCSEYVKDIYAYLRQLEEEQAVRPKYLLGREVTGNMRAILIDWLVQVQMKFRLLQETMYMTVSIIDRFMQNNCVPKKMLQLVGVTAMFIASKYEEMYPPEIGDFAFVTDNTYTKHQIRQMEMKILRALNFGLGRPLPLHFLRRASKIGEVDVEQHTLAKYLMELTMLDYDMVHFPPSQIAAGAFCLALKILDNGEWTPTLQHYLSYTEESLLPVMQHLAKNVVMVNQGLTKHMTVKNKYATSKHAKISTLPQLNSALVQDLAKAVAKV
Description for in vitro: Protein binding in mouse plasma at 1 ug/ml after 30 mins

In turn, `O=C(CO)Nc1c[nH]nc1C(=O)Nc1ccc(F)cc1` yielded an IC50 in data set [1] of 730 nM.

The molecule `O=C(NC1CCNCC1)c1n[nH]cc1NC(=O)c1c(F)cc(F)cc1F` had an IC50 in data set [1] of 750 nM. Besides, the clearance in “in vivo” stood at 71 mL/min/kg.

Take `Clc1cncc(Nc2ccccc2)n1`: in [1], the IC50 was 7000 nM.

`O=C(NC1CCCCC1)c1n[nH]cc1NC(=O)c1c(F)cccc1F`: the IC50 in [2] worked out at 55 nM. Moreover, the clearance in the data set “in vivo” came to 65 mL/min/kg.

With `O=C(N[C@H]1CC[C@H](O)CC1)c1n[nH]cc1NC(=O)c1c(F)cccc1F`, the IC50 in data set [1] amounted to 19 nM; in [2] it was 45 nM. In the data set “in vivo”, this molecule gave a clearance of 42 mL/min/kg.

For `O=C(NC1CCNCC1)c1n[nH]cc1NC(=O)c1c(F)cccc1F` [listing 1 of 2 here], in the data set on HCT-116 [3], the inhibition in vivo at 18.2 mg/kg worked out at 86%. The molecule also returned an inhibition in vivo at 9.1 mg/kg in the data set on HCT-116 [4] of 46%. The molecule also came in with an inhibition in vivo at […] with HCT-116 [5] of 22%.

With `O=C(NC1CCNCC1)c1n[nH]cc1NC(=O)c1c(F)cccc1F` [listing 2 of 2 here], the AUC in the data set listed under Mus musculus was 3422 ng·h/g. Also, in the data set with HCT-116 [6], the T/C turned out to be 54%. Also, the clearance in the data set “in vivo” was determined as 43 mL/min/kg. In “in vitro”, this molecule had a fraction unbound at 0.5 h, 1 ug/ml of 0.16.

On to `c1ccc2[nH]c(-c3cc[nH]n3)nc2c1`, for which the IC50 in data set [1] turned out to be 25000 nM.

In turn, `COc1cccc(F)c1C(=O)Nc1c[nH]nc1C(=O)NC1CCNCC1` came in with a T/C in the data set on HCT-116 [7] of 62%. Also, the IC50 in data set [1] amounted to 350 nM. In addition, the AUC in the data set filed under Mus musculus is 3325 ng·h/g. In “in vivo”, this molecule had a clearance of 38 mL/min/kg. The same molecule gave a fraction unbound at 0.5 h, 1 ug/ml in the data set “in vitro” of 0.25.

Consider `O=C(NC1CCNCC1)c1n[nH]cc1NC(=O)c1c(F)cccc1Cl`, for which inhibition in data set [1] was half-maximal at 110 nM (IC50). For the same molecule, the clearance in the data set “in vivo” was 56 mL/min/kg.

For the molecule `Cl.O=C(N[C@H]1CCCNC1)c1n[nH]cc1NC(=O)c1c(F)cccc1F`, the IC50 stood at 44 nM in data set [1] and 38 nM in [2]. Besides, in the data set “in vivo”, the clearance came out at 48 mL/min/kg.

In [1], `Nc1c[nH]nc1C(=O)Nc1ccc(F)cc1` displayed an IC50 of 85000 nM.

On to `N[C@H]1CC[C@H](NC(=O)c2n[nH]cc2NC(=O)c2c(F)cccc2F)CC1`, for which the IC50 was determined as 38 nM in data set [1] and 440 nM in data set [2]. In addition, the clearance in the data set “in vivo” was determined as 63 mL/min/kg.

As for `O=C(Nc1ccccc1)c1n[nH]c2ccccc12`, the IC50 in data set [1] is 3000 nM.

With `O=C(NCC1CC1)c1n[nH]cc1NC(=O)c1c(F)cccc1F`, the clearance in the data set “in vivo” was determined as 66 mL/min/kg.

Molecule `O=C(Nc1ccc(F)cc1)c1n[nH]cc1NC(=O)c1c(F)cccc1F` showed an IC50 in data set [2] of 10 nM. In “in vivo”, the clearance was 40 mL/min/kg.

By IC50 is commonly meant the midpoint of a concentration-inhibition curve. Low values mean greater potency, high ones weaker potency. A word on the clearance: it is a measure of how efficiently the substance is removed, as volume per time. A low value points to inefficient removal. In general, inhibition in vivo refers to the share of the control response that was lost under treatment. For orientation: T/C means the result in the treated group divided by that in the control group, in per cent. The term fraction unbound denotes the share of the substance not bound to proteins or other matrix. A low value points to extensive binding.
